Measured values reported in ChEMBL document CHEMBL3885881, “DrugMatrix”.

Organism: Rattus norvegicus
Test: DrugMatrix - Regimen: Daily Repeat
Format: toxicity, organism-based, Sprague-Dawley
Set-up: regimen Daily Repeat, gender Male, age 6-8 weeks
Details: in vivo, po, route oral GAVAGE, vehicle 100 % SALINE; for ABSOLUTE BASOPHIL / ABSOLUTE EOSINOPHIL / ABSOLUTE LYMPHOCYTE / ABSOLUTE MONOCYTE / ABSOLUTE SEGMENTED NEUTROPHIL / BASOPHIL / EOSINOPHIL / ERYTHROCYTE COUNT / HEMATOCRIT / HEMOGLOBIN / LEUKOCYTE COUNT / LYMPHOCYTE / MEAN CORPUSCULAR HEMOGLOBIN / MEAN CORPUSCULAR HEMOGLOBIN CONCENTRATION / MEAN CORPUSCULAR VOLUME / MONOCYTE / NEUTROPHIL / NUCLEATED RED BLOOD CELLS / PLATELET COUNT: tissue Blood; for ALANINE AMINOTRANSFERASE / ALBUMIN / ALKALINE PHOSPHATASE / ASPARTATE AMINOTRANSFERASE / BLOOD UREA NITROGEN / CARBON DIOXIDE / CHLORIDE / CHOLESTEROL / CREATINE PHOSPHOKINASE / CREATININE / GLUCOSE / LACTATE DEHYDROGENASE / LIPASE / PHOSPHORUS / POTASSIUM / SODIUM / TOTAL BILIRUBIN / TOTAL PROTEIN / URIC ACID: tissue Plasma
[1] = 0 mg/kg, 72 h, dose level Control, time 3 day
[2] = 0 mg/kg, 120 h, dose level Control, time 5 day
[3] = 1200 mg/kg, 72 h, dose level High, time 3 day
[4] = 1200 mg/kg, 120 h, dose level High, time 5 day

## CC(=O)OCC(CCn1cnc2cnc(N)nc21)COC(C)=O [FAMCICLOVIR]
[1]
  ABSOLUTE BASOPHIL: 0 CELLS/uL
  ABSOLUTE EOSINOPHIL: 37 CELLS/uL
  ABSOLUTE LYMPHOCYTE: 12359.33 CELLS/uL
  ABSOLUTE MONOCYTE: 122.67 CELLS/uL
  ABSOLUTE SEGMENTED NEUTROPHIL: 847.67 CELLS/uL
  BASOPHIL: 0%
  EOSINOPHIL: 0.33%
  ERYTHROCYTE COUNT: 5.75 x10E6/uL
  HEMATOCRIT: 36.08%
  HEMOGLOBIN: 14.07 G/DL
  LEUKOCYTE COUNT: 13.37 x10E3/uL
  LYMPHOCYTE: 92.5%
  MEAN CORPUSCULAR HEMOGLOBIN: 24.47 pg
  MEAN CORPUSCULAR HEMOGLOBIN CONCENTRATION: 38.98 G/DL
  MEAN CORPUSCULAR VOLUME: 62.78 fL
  MONOCYTE: 1%
  NEUTROPHIL: 6.17%
  NUCLEATED RED BLOOD CELLS: 0.17 /100WBC
  PLATELET COUNT: 1202.17 x10E3/uL
  ALANINE AMINOTRANSFERASE: 50.67 u/L
  ALBUMIN: 4.13 G/DL
  ALKALINE PHOSPHATASE: 356.33 u/L
  ASPARTATE AMINOTRANSFERASE: 78.17 u/L
  BLOOD UREA NITROGEN: 14.17 mg/dL
  CARBON DIOXIDE: 31.33 mmol/L
  CHLORIDE: 98.5 MEQ/L
  CHOLESTEROL: 76.5 mg/dL
  CREATINE PHOSPHOKINASE: 248.33 u/L
  CREATININE: 0.2 mg/dL
  GLUCOSE: 144 mg/dL
  LACTATE DEHYDROGENASE: 107 u/L
  LIPASE: 9.83 u/L
  PHOSPHORUS: 12.8 mg/dL
  POTASSIUM: 6.75 MEQ/L
  SODIUM: 142 MEQ/L
  TOTAL BILIRUBIN: 0.18 mg/dL
  TOTAL PROTEIN: 5.98 G/DL
  URIC ACID: 1.42 mg/dL
[2]
  ABSOLUTE BASOPHIL: 0 CELLS/uL
  ABSOLUTE EOSINOPHIL: 0 CELLS/uL
  ABSOLUTE LYMPHOCYTE: 8681.17 CELLS/uL
  ABSOLUTE MONOCYTE: 79.83 CELLS/uL
  ABSOLUTE SEGMENTED NEUTROPHIL: 689 CELLS/uL
  BASOPHIL: 0%
  EOSINOPHIL: 0%
  ERYTHROCYTE COUNT: 5.49 x10E6/uL
  HEMATOCRIT: 33.55%
  HEMOGLOBIN: 13.1 G/DL
  LEUKOCYTE COUNT: 9.45 x10E3/uL
  LYMPHOCYTE: 92.33%
  MEAN CORPUSCULAR HEMOGLOBIN: 23.92 pg
  MEAN CORPUSCULAR HEMOGLOBIN CONCENTRATION: 39.07 G/DL
  MEAN CORPUSCULAR VOLUME: 61.22 fL
  MONOCYTE: 0.67%
  NEUTROPHIL: 7%
  NUCLEATED RED BLOOD CELLS: 0.17 /100WBC
  PLATELET COUNT: 1001.17 x10E3/uL
  ALANINE AMINOTRANSFERASE: 49.33 u/L
  ALBUMIN: 4.07 G/DL
  ALKALINE PHOSPHATASE: 300.33 u/L
  ASPARTATE AMINOTRANSFERASE: 83.5 u/L
  BLOOD UREA NITROGEN: 16 mg/dL
  CARBON DIOXIDE: 29.67 mmol/L
  CHLORIDE: 100.5 MEQ/L
  CHOLESTEROL: 74.33 mg/dL
  CREATINE PHOSPHOKINASE: 489.67 u/L
  CREATININE: 0.35 mg/dL
  GLUCOSE: 151 mg/dL
  LACTATE DEHYDROGENASE: 133.67 u/L
  LIPASE: 11.17 u/L
  PHOSPHORUS: 10.88 mg/dL
  POTASSIUM: 5.5 MEQ/L
  SODIUM: 145.7 MEQ/L
  TOTAL BILIRUBIN: 0.2 mg/dL
  TOTAL PROTEIN: 6.05 G/DL
  URIC ACID: 0.68 mg/dL
[3]
  ABSOLUTE BASOPHIL: 0 CELLS/uL
  ABSOLUTE EOSINOPHIL: 0 CELLS/uL
  ABSOLUTE LYMPHOCYTE: 7020.67 CELLS/uL
  ABSOLUTE MONOCYTE: 111 CELLS/uL
  ABSOLUTE SEGMENTED NEUTROPHIL: 835 CELLS/uL
  BASOPHIL: 0%
  EOSINOPHIL: 0%
  ERYTHROCYTE COUNT: 5.23 x10E6/uL
  HEMATOCRIT: 33.07%
  HEMOGLOBIN: 13.03 G/DL
  LEUKOCYTE COUNT: 7.97 x10E3/uL
  LYMPHOCYTE: 88%
  MEAN CORPUSCULAR HEMOGLOBIN: 24.97 pg
  MEAN CORPUSCULAR HEMOGLOBIN CONCENTRATION: 39.4 G/DL
  MEAN CORPUSCULAR VOLUME: 63.33 fL
  MONOCYTE: 1.33%
  NEUTROPHIL: 10.67%
  NUCLEATED RED BLOOD CELLS: 0 /100WBC
  PLATELET COUNT: 1079.67 x10E3/uL
  ALANINE AMINOTRANSFERASE: 49 u/L
  ALBUMIN: 4.07 G/DL
  ALKALINE PHOSPHATASE: 334 u/L
  ASPARTATE AMINOTRANSFERASE: 80.33 u/L
  BLOOD UREA NITROGEN: 14.33 mg/dL
  CARBON DIOXIDE: 29.33 mmol/L
  CHLORIDE: 100.67 MEQ/L
  CHOLESTEROL: 77.33 mg/dL
  CREATINE PHOSPHOKINASE: 294 u/L
  CREATININE: 0.2 mg/dL
  GLUCOSE: 160 mg/dL
  LACTATE DEHYDROGENASE: 118.67 u/L
  LIPASE: 10 u/L
  PHOSPHORUS: 11.4 mg/dL
  POTASSIUM: 5.59 MEQ/L
  SODIUM: 144.23 MEQ/L
  TOTAL BILIRUBIN: 0.17 mg/dL
  TOTAL PROTEIN: 5.83 G/DL
  URIC ACID: 0.93 mg/dL
[4]
  ABSOLUTE BASOPHIL: 0 CELLS/uL
  ABSOLUTE EOSINOPHIL: 0 CELLS/uL
  ABSOLUTE LYMPHOCYTE: 9833.67 CELLS/uL
  ABSOLUTE MONOCYTE: 110.67 CELLS/uL
  ABSOLUTE SEGMENTED NEUTROPHIL: 822.33 CELLS/uL
  BASOPHIL: 0%
  EOSINOPHIL: 0%
  ERYTHROCYTE COUNT: 5.64 x10E6/uL
  HEMATOCRIT: 35.27%
  HEMOGLOBIN: 13.9 G/DL
  LEUKOCYTE COUNT: 10.77 x10E3/uL
  LYMPHOCYTE: 91.33%
  MEAN CORPUSCULAR HEMOGLOBIN: 24.73 pg
  MEAN CORPUSCULAR HEMOGLOBIN CONCENTRATION: 39.43 G/DL
  MEAN CORPUSCULAR VOLUME: 62.77 fL
  MONOCYTE: 1%
  NEUTROPHIL: 7.67%
  NUCLEATED RED BLOOD CELLS: 0.33 /100WBC
  PLATELET COUNT: 1147.67 x10E3/uL
  ALANINE AMINOTRANSFERASE: 54 u/L
  ALBUMIN: 4.03 G/DL
  ALKALINE PHOSPHATASE: 380.67 u/L
  ASPARTATE AMINOTRANSFERASE: 82.33 u/L
  BLOOD UREA NITROGEN: 13 mg/dL
  CARBON DIOXIDE: 29.67 mmol/L
  CHLORIDE: 100.67 MEQ/L
  CHOLESTEROL: 75.67 mg/dL
  CREATINE PHOSPHOKINASE: 286 u/L
  CREATININE: 0.31 mg/dL
  GLUCOSE: 147.33 mg/dL
  LACTATE DEHYDROGENASE: 106 u/L
  LIPASE: 9.33 u/L
  PHOSPHORUS: 11.2 mg/dL
  POTASSIUM: 5.79 MEQ/L
  SODIUM: 145.73 MEQ/L
  TOTAL BILIRUBIN: 0.17 mg/dL
  TOTAL PROTEIN: 5.77 G/DL
  URIC ACID: 0.73 mg/dL
